Measurements: patent US10053463B2 (Janssen Pharmaceutica NV, priority 2013, dated 2018)

Biological target: P2X7 (Homo sapiens (Human), UniProt Q99572)
Experiment: P2X7 antagonism in human peripheral blood mononuclear cells (PBMCs), IL-1β release
Format: cell-based
Settings: P2X7; Table 3 (additional runs); 10 μM compound; read-out: PBMC 10 μM (% control)
Method: P2X7 Antagonism in Human Peripheral Blood Mononuclear Cells (PBMCs) and Human Whole Blood.
Human blood was collected using a blood donor program. PBMCs were isolated from blood using a Ficoll density gradient technique. Briefly, blood was laid on Ficoll solution and centrifuged at RT for 20 minutes at 2000 rpm. The buffy layer (between red blood cells and plasma) was carefully collected by aspiration, washed with PBS and centrifuged again at 1500 rpm for 15 minutes. The resulting cell pellet was washed and plated on 96 well-plates for experiments. For the Human Whole Blood experiments, 150 μl of human blood was platted on 96 well-plates. Lipopolysaccharide (LPS) (30 ng/ml) was added to each well and incubated for 1 hour. Test compounds were then added and incubated for 30 minutes. The P2X7 agonist, 2′(3′)-O-(4-benzoylbenzoyl) adenosine 5′-triphosphate (Bz-ATP) was then added at a final concentration of 0.5 mM (PBMC) or 1 mM (blood). Cells were incubated for an additional 1.5 hours. At that point, supernatant was collected and stored for IL-1β assay using manufacturer's protocol for enzyme-linked immunosorbent assay (ELISA). Data was expressed as percent control, where control is defined as the difference in IL-1β release in LPS+Bz-ATP samples and LPS only samples. Data was plotted as response (% control) versus concentration to generate IC50 values. […] Data are analyzed and graphed on Graphpad Prism 5. For analysis, each concentration point is averaged from triplicate values and the averaged values are plotted on Graphpad Prism.

Chain of P2X7 (Q99572 whole entry): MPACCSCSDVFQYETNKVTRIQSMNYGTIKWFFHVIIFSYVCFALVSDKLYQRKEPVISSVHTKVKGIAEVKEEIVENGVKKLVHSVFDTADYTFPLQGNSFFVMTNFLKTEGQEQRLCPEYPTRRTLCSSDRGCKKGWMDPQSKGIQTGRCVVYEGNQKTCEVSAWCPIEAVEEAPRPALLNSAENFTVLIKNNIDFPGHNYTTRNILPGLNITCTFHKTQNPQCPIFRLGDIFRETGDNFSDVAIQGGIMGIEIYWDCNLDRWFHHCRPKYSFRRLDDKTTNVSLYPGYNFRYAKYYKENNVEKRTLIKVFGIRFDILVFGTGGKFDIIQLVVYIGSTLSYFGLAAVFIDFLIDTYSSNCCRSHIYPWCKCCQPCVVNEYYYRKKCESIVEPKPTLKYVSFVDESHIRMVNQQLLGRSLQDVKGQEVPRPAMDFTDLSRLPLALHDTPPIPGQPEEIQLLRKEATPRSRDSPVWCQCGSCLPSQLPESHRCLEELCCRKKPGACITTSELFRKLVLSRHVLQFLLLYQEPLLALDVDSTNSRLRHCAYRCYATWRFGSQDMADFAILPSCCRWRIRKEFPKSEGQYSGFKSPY

Structure (SMILES)	remaining activity at 10 µM [%]
CC(c1cccc(C(F)(F)F)c1Cl)N1CCn2c(nnc2-c2cnccn2)C1=O (racemic) [Example 4, (±)7-{1-[2-Chloro-3-(trifluoromethyl)phenyl]ethyl}-3-pyrazin-2-yl-6,7-dihydro[1,2,4]triazolo[4,3-a]pyrazin-8(5H)-one]	46
CC1Cn2c(nnc2-c2cnccn2)C(=O)N1Cc1cccc(Cl)c1Cl (racemic) [Example 11, (±)-7-(2,3-Dichlorobenzyl)-6-methyl-3-pyrazin-2-yl-6,7-dihydro[1,2,4]triazolo[4,3-a]pyrazin-8(5H)-one]	-0.4
CC1Cn2c(nnc2-c2cnccn2)C(=O)N1Cc1cccc(C(F)(F)F)c1Cl (racemic) [Example 14, (±)-7-[2-Chloro-3-(trifluoromethyl)benzyl]-6-methyl-3-pyrazin-2-yl-6,7-dihydro[1,2,4]triazolo[4,3-a]pyrazin-8(5H)-one]	2.5
O=C1c2nnc(-c3ccc(F)cc3)n2CCN1Cc1cccc(C(F)(F)F)c1Cl [Example 1, 7-[2-Chloro-3-(trifluoromethyl)benzyl]-3-(4-fluorophenyl)-6,7-dihydro[1,2,4]triazolo[4,3-a]pyrazin-8(5H)-one]	25.4
O=C1c2nnc(-c3cnccn3)n2CCN1Cc1c(Cl)cccc1Cl [Example 5, 7-(2,6-Dichlorobenzyl)-3-pyrazin-2-yl-6,7-dihydro[1,2,4]triazolo[4,3-a]pyrazin-8(5H)-one]	8.8
O=C1c2nnc(-c3cnccn3)n2CCN1Cc1cccc(F)c1F [Example 6, 7-(2,3-Difluorobenzyl)-3-pyrazin-2-yl-6,7-dihydro[1,2,4]triazolo[4,3-a]pyrazin-8(5H)-one]	23.7
CS(=O)(=O)c1cc(Cl)ccc1CN1CCn2c(nnc2-c2cnccn2)C1=O [Example 7, 7-[4-Chloro-2-(methylsulfonyl)benzyl]-3-pyrazin-2-yl-6,7-dihydro[1,2,4]triazolo[4,3-a]pyrazin-8(5H)-one]	8.8
O=C1c2nnc(-c3ccccn3)n2CCN1Cc1cccc(Cl)c1Cl [Example 8, 7-(2,3-Dichlorobenzyl)-3-pyridin-2-yl-6,7-dihydro[1,2,4]triazolo[4,3-a]pyrazin-8(5H)-one]	-10.6
O=C1c2nnc(-c3ccccn3)n2CCN1Cc1cccc(C(F)(F)F)c1Cl [Example 9, 7-[2-Chloro-3-(trifluoromethyl)benzyl]-3-pyridin-2-yl-6,7-dihydro[1,2,4]triazolo[4,3-a]pyrazin-8(5H)-one]	-3.1
Cc1c(CN2CCn3c(nnc3-c3ccccn3)C2=O)cccc1C(F)(F)F [Example 10, 7-[2-Methyl-3-(trifluoromethyl)benzyl]-3-pyridin-2-yl-6,7-dihydro[1,2,4]triazolo[4,3-a]pyrazin-8(5H)-one]	59.3
C[C@H]1Cn2c(nnc2-c2cnccn2)C(=O)N1Cc1cccc(Cl)c1Cl [Example 13, (6S)-7-(2,3-Dichlorobenzyl)-6-methyl-3-pyrazin-2-yl-6,7-dihydro[1,2,4]triazolo[4,3-a]pyrazin-8(5H)-one]	8.2
C[C@@H]1Cn2c(nnc2-c2cnccn2)C(=O)N1Cc1cccc(C(F)(F)F)c1Cl [Example 15, (6R)-7-[2-Chloro-3-(trifluoromethyl)benzyl]-6-methyl-3-pyrazin-2-yl-6,7-dihydro[1,2,4]triazolo[4,3-a]pyrazin-8(5H)-one]	4.1

Other lines, results leading:

remaining activity at 10 µM [%]	Structure (SMILES)
-1	O=C1c2nnc(-c3cnccn3)n2CC(C2CC2)N1Cc1cccc(C(F)(F)F)c1Cl (racemic) [Example 61, (±)-7-[2-Chloro-3-(trifluoromethyl)benzyl]-6-cyclopropyl-3-pyrazin-2-yl-6,7-dihydro[1,2,4]triazolo[4,3-a]pyrazin-8(5H)-one]
-0.4	O=C1c2nnc(-c3ncccn3)n2CC(C2CC2)N1Cc1cccc(C(F)(F)F)c1Cl (racemic) [Example 64, (±)-7-[2-Chloro-3-(trifluoromethyl)benzyl]-6-cyclopropyl-3-pyrimidin-2-yl-6,7-dihydro[1,2,4]triazolo[4,3-a]pyrazin-8(5H)-one]
6.9	O=C1c2nnc(-c3cccnc3)n2CC(C2CC2)N1Cc1cccc(C(F)(F)F)c1Cl (racemic) [Example 67, (±)-7-[2-Chloro-3-(trifluoromethyl)benzyl]-6-cyclopropyl-3-pyridin-3-yl-6,7-dihydro[1,2,4]triazolo[4,3-a]pyrazin-8(5H)-one]
1.6	O=C1c2nnc(-c3cc[nH]n3)n2CC(C2CC2)N1Cc1cccc(C(F)(F)F)c1Cl (racemic) [Example 68, (±)-7-[2-Chloro-3-(trifluoromethyl)benzyl]-6-cyclopropyl-3-(1H-pyrazol-3-yl)-6,7-dihydro[1,2,4]triazolo[4,3-a]pyrazin-8(5H)-one]
20.8	O=C1c2nnc(-c3ccc(F)cn3)n2CC(C2CC2)N1Cc1cccc(C(F)(F)F)c1Cl (racemic) [Example 69, (±)-7-[2-Chloro-3-(trifluoromethyl)benzyl]-6-cyclopropyl-3-(5-fluoropyridin-2-yl)-6,7-dihydro[1,2,4]triazolo[4,3-a]pyrazin-8(5H)-one]
9.1	O=C1c2nnc(-c3ncc(F)cn3)n2CC(C2CC2)N1Cc1cccc(C(F)(F)F)c1Cl (racemic) [Example 70, (±)-7-[2-Chloro-3-(trifluoromethyl)benzyl]-6-cyclopropyl-3-(5-fluoropyrimidin-2-yl)-6,7-dihydro[1,2,4]triazolo[4,3-a]pyrazin-8(5H)-one]
-1.3	C[C@H](c1ccccc1)N1C(=O)c2nnc(-c3cnccn3)n2C[C@@H]1C (relative stereo) [Example 94, (6S)-6-Methyl-7[(1R*)-1-phenylethyl]-3-pyrazin-2-yl-6,7-dihydro[1,2,4]triazolo[4,3-a]pyrazin-8(5H)-one]
3.1	C[C@H]1Cn2c(nnc2-c2cnccn2)C(=O)N1[C@@H](C)c1ccccc1 (relative stereo) [Example 95, (6S)-6-Methyl-7-[(1S*)-1-phenylethyl]-3-pyrazin-2-yl-6,7-dihydro[1,2,4]triazolo[4,3-a]pyrazin-8(5H)-one]
8.4	C[C@H]1Cn2c(nnc2-c2cnccn2)C(=O)N1Cc1cccc(C(F)(F)F)c1Cl [Example 16, (6S)-7-[2-Chloro-3-(trifluoromethyl)benzyl]-6-methyl-3-pyrazin-2-yl-6,7-dihydro[1,2,4]triazolo[4,3-a]pyrazin-8(5H)-one]
2	C[C@H]1Cn2c(nnc2-c2ccc(F)cc2)C(=O)N1Cc1cccc(C(F)(F)F)c1Cl [Example 17, (6S)-7-[2-Chloro-3-(trifluoromethyl)benzyl]-3-(4-fluorophenyl)-6-methyl-6,7-dihydro[1,2,4]triazolo[4,3-a]pyrazin-8(5H)-one]

Same assay, conditions: Table 2; 10 μM compound; IL-1β release, LPS + 0.5 mM Bz-ATP

PBMC 10 μM (% control)	Structure (SMILES)
15.4	C[C@H]1Cn2c(nnc2-c2cnccn2)C(=O)N1Cc1cccc(Cl)c1Cl [Example 13, (6S)-7-(2,3-Dichlorobenzyl)-6-methyl-3-pyrazin-2-yl-6,7-dihydro[1,2,4]triazolo[4,3-a]pyrazin-8(5H)-one]
13.4	C[C@H]1Cn2c(nnc2-c2cnccn2)C(=O)N1Cc1cccc(C(F)(F)F)c1Cl [Example 16, (6S)-7-[2-Chloro-3-(trifluoromethyl)benzyl]-6-methyl-3-pyrazin-2-yl-6,7-dihydro[1,2,4]triazolo[4,3-a]pyrazin-8(5H)-one]

Same assay, conditions: Table 3 (additional runs); 1 μM compound

PBMC 1 μM (% control)	Structure (SMILES)
−0.6	O=C1c2nnc(-c3cnccn3)n2CCN1Cc1cccc(C(F)(F)F)c1Cl [Example 3, 7-[2-Chloro-3-(trifluoromethyl)benzyl]-3-pyrazin-2-yl-6,7-dihydro[1,2,4]triazolo[4,3-a]pyrazin-8(5H)-one]
